{"source": "patent US20240327364A1", "about": "“THERAPEUTIC TARGETING OF GPR68 TO INDUCE FERROPTOSIS” (University Of Maryland, Baltimore, priority 2023, published 2024)", "key": {"[1]": {"target": "T1, ACVR1 (Homo sapiens, UniProt Q04771)", "T1 construct": "purchased DiscoveRx", "test": "KinomeScan", "type": "binding", "details": "read-out: % Control"}, "[2]": {"target": "T2, ACVR1B (Homo sapiens, UniProt P36896)", "T2 construct": "purchased DiscoveRx", "test": "KinomeScan", "type": "binding", "details": "read-out: % Control"}, "[3]": {"target": "T3, BMPR1A (Homo sapiens, UniProt P36894)", "T3 construct": "purchased DiscoveRx (Fremont, CA)", "test": "KinomeScan", "type": "binding", "details": "read-out: % Control"}, "[4]": {"target": "T4, ERBB3 (Homo sapiens, UniProt P21860)", "T4 construct": "purchased DiscoveRx (Fremont, CA)", "T4 sequence (P21860 20-1342)": "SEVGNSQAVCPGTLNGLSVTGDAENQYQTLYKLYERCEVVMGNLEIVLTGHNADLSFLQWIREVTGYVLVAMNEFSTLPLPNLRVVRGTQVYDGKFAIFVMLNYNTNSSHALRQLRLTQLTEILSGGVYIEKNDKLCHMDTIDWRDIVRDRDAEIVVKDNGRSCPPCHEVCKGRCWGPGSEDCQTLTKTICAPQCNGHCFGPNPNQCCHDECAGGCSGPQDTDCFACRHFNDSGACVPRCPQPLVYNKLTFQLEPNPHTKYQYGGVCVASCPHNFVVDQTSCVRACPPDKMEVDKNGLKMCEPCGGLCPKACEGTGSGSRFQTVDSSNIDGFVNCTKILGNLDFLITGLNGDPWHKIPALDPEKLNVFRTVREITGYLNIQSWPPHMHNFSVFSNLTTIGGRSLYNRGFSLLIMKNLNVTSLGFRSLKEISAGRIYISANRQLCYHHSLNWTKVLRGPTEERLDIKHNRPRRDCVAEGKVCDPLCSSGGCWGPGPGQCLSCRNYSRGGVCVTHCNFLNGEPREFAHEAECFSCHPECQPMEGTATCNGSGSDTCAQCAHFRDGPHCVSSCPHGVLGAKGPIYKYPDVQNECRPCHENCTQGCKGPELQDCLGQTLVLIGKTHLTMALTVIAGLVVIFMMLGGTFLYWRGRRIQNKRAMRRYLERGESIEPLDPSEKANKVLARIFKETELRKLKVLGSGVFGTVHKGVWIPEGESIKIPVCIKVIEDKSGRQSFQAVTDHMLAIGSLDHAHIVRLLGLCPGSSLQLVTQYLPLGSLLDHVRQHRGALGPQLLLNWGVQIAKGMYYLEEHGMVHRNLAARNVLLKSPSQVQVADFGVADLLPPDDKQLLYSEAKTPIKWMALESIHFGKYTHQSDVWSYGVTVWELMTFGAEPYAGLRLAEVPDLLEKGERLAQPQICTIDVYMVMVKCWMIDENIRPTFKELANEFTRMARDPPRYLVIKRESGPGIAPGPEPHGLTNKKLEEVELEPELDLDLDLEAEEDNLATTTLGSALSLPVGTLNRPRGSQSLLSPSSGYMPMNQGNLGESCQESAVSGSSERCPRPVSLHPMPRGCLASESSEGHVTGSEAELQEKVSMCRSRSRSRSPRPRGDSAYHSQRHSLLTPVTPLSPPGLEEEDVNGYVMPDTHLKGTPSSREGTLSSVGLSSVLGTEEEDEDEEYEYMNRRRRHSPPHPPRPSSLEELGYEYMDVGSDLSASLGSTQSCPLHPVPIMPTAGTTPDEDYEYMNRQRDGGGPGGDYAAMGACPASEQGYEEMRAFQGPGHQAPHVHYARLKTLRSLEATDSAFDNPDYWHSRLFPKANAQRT", "test": "KinomeScan", "type": "binding", "details": "read-out: % Control"}, "[5]": {"target": "T5, HIPK4 (Homo sapiens, UniProt Q8NE63)", "T5 construct": "purchased DiscoveRx (Fremont, CA)", "test": "KinomeScan", "type": "binding", "details": "read-out: % Control"}, "[6]": {"target": "T6, ICK (Homo sapiens, UniProt Q9UPZ9)", "T6 construct": "purchased DiscoveRx (Fremont, CA)", "test": "KinomeScan", "type": "binding", "details": "read-out: % Control"}, "[7]": {"target": "T7, JAK2(JH1domain-catalytic) (Homo sapiens, UniProt O60674)", "T7 construct": "JAK2(JH1domain-catalytic); purchased DiscoveRx (Fremont, CA)", "T7 sequence (O60674 849-1124 limits assumed)": "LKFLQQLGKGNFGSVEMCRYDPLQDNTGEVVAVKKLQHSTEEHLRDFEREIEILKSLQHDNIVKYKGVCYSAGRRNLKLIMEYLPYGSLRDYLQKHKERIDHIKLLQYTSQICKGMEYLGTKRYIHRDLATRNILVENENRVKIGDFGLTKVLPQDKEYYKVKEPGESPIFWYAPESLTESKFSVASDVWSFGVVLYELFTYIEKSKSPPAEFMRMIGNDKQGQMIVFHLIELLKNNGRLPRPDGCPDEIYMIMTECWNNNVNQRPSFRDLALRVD", "test": "KinomeScan", "type": "binding", "details": "read-out: % Control"}, "[8]": {"target": "T8, MAP3K2 (Homo sapiens, UniProt Q9Y2U5)", "T8 construct": "purchased DiscoveRx (Fremont, CA)", "test": "KinomeScan", "type": "binding", "details": "read-out: % Control"}, "[9]": {"target": "T9, MAP3K4 (Homo sapiens, UniProt Q9Y6R4)", "T9 construct": "purchased DiscoveRx (Fremont, CA)", "T9 sequence (Q9Y6R4 whole entry)": "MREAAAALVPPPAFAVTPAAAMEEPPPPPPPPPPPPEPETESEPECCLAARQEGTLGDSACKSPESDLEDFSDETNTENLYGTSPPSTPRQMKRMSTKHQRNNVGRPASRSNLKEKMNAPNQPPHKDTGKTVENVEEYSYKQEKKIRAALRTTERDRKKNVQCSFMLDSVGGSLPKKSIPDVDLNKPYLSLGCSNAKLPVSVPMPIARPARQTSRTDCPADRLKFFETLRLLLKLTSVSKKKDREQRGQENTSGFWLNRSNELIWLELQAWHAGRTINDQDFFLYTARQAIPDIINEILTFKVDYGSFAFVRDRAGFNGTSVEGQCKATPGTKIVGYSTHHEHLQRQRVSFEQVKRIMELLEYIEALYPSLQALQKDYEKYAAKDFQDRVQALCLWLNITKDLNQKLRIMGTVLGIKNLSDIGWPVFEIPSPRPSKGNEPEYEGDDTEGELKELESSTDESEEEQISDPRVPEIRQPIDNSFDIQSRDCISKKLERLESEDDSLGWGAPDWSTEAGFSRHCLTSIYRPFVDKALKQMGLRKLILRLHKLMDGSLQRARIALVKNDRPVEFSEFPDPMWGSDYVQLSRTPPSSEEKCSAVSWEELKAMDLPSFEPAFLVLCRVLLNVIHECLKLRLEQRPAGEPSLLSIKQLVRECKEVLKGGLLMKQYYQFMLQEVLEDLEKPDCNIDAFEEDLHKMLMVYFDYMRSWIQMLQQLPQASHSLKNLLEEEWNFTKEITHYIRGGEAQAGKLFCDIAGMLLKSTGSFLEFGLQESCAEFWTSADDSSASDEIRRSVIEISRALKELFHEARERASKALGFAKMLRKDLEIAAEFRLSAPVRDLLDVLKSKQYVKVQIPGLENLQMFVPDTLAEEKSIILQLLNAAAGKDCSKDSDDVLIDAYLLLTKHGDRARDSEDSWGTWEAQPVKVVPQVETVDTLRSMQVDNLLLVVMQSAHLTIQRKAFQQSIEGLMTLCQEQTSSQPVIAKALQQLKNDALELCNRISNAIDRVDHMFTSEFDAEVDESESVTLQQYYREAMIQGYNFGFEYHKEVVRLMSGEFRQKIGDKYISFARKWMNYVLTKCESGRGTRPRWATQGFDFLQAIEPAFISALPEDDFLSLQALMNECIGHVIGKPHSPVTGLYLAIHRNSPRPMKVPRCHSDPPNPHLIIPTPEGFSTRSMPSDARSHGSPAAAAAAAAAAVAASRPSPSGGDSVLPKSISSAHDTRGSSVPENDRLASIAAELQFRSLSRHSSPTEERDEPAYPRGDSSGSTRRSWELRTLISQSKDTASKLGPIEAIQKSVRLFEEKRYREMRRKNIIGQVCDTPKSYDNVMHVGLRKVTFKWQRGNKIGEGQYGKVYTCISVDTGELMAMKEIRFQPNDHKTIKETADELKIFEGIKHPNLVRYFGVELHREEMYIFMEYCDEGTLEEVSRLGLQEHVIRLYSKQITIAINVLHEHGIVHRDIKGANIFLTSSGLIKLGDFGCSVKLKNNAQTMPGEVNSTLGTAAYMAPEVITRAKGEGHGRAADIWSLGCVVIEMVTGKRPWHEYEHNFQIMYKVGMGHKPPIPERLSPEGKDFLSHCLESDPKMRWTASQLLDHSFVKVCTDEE", "test": "KinomeScan", "type": "binding", "details": "read-out: % Control"}, "[10]": {"target": "T10, MST1 (Homo sapiens, UniProt Q13043)", "T10 construct": "purchased DiscoveRx", "T10 sequence (Q13043 whole entry)": "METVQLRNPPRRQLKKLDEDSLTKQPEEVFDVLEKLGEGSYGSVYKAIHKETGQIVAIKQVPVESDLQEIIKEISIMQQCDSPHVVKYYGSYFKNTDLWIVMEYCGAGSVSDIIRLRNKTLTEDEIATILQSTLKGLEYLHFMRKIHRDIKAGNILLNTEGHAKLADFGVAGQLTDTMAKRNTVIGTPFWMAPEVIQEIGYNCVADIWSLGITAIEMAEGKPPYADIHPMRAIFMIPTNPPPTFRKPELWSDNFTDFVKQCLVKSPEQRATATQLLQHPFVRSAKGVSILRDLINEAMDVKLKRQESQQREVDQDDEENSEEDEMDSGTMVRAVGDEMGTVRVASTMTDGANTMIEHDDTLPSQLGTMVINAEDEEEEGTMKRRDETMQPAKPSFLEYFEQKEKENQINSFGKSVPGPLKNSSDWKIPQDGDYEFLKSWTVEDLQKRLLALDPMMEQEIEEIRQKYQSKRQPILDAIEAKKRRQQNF", "test": "KinomeScan", "type": "binding", "details": "read-out: % Control"}, "[11]": {"target": "T11, CDC2L5 (Homo sapiens, UniProt Q14004)", "T11 construct": "purchased DiscoveRx (KinomeScan service)", "test": "KinomeScan", "type": "binding", "details": "read-out: % Control", "experimental": "(§1) GPCR profiling assays were performed by Millipore (St. Louis, MO) using in cells expressing Gα15, a promiscuous G protein that enhances GPCR coupling to downstream Ca2+ signaling pathways. KinomeScan was conducted by DiscoveRx (Fremont, CA).\n(§2) To identify the target of OGM1, the molecule was profiled for binding in a panel of 442 kinases (KinomeScan™, DiscoveRx™) and assessed its activity against 158 GPCRs in a single-point assay in Chem-1 cells that uses a promiscuous Gα15 protein to trigger calcium flux (see Table 9 and Table 10, below). […] Table 9. KinomeScan (DiscoverRx) profiling of OGM1."}, "[12]": {"target": "T12, PRP4 (Homo sapiens, UniProt Q13523)", "T12 construct": "purchased DiscoveRx (Fremont, CA)", "test": "KinomeScan", "type": "binding", "details": "read-out: % Control", "experimental": "as §1, §2"}, "[13]": {"target": "T13, CCR1 (Homo sapiens, UniProt P32246)", "T13 construct": "host or cells: Chem-1 cells with Gα15", "T13 sequence (P32246 whole entry, species assumed)": "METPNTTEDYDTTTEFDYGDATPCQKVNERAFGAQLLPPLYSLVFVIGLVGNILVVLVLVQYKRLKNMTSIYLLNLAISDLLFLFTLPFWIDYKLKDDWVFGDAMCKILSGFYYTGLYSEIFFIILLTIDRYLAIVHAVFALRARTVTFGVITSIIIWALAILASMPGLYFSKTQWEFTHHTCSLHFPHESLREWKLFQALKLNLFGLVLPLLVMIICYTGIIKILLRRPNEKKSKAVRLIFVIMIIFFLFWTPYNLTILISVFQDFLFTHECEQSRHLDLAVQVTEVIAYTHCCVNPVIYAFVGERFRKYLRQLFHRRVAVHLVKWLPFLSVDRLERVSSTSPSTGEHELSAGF", "test": "GPCR Profiler", "type": "cell-based"}, "[14]": {"target": "T14, CCR9 (Homo sapiens, UniProt P51686)", "T14 construct": "host or cells: Chem-1 cells with Gα15", "T14 sequence (P51686 whole entry, species assumed)": "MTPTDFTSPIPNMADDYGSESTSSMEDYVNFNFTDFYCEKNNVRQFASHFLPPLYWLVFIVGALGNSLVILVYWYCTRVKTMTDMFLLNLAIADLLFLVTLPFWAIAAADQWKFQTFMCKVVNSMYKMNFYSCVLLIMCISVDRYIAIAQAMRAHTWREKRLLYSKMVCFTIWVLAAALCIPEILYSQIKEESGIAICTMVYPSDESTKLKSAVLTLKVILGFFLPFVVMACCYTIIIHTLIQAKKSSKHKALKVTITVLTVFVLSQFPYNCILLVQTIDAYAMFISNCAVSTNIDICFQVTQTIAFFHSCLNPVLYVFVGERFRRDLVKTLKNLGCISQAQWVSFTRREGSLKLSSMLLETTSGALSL", "test": "GPCR Profiler", "type": "cell-based"}, "[15]": {"target": "T15, H3 (Homo sapiens, UniProt Q9Y5N1)", "T15 construct": "host or cells: Chem-1 cells with promiscuous Gα15", "T15 sequence (Q9Y5N1 whole entry)": "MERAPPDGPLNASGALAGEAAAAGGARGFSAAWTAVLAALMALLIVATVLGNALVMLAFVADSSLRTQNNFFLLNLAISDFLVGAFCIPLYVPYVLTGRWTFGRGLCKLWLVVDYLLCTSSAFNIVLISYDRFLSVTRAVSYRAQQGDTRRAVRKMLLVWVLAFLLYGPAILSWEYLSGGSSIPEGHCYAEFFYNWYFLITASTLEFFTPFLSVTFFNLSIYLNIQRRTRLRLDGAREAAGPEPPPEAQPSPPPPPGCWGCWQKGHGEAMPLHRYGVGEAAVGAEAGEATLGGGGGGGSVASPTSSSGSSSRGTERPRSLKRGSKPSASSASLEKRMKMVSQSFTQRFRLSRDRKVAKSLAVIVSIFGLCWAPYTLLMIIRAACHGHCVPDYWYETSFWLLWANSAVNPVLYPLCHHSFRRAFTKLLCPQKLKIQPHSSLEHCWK", "test": "GPCR Profiler", "type": "cell-based"}, "[16]": {"system": "U87 spheroids", "test": "GBM spheroid assay", "type": "cell-based, human", "experimental": "One thousand cells per well were plated in an ultra-low attachment, round-bottomed, 96-well plate, and spheroids were allowed to form for 3 days. Wells were then exposed to concentrations of vehicle, OGM2 or TMZ or a combination for 3 days. Spheroids were imaged in brightfield at 10× using z-stacks that were collapsed into z-projections in the Gen5 software using the LionheartFx (BioTek™). Automated measurements of the spheroid area were obtained using Gen5 software.\nTumor spheroid cultures are a more physiological model of tumor growth than typical 2D cell culture. Temozolomide sensitive U87 (FIG. 20A) and Temozolomide insensitive U138 (FIG. 20B) glioblastoma cell lines were plated in low attachment round bottom 96-well plates and allowed to form tumor spheroids for 3 days (T0). At T0, spheroids were imaged using Lionheart™ (HCS) High-Content Imaging Systems (Biotek™) and then were exposed to increasing doses of either Temozolomide or OGM2. After 5 days of treatment the spheroids were imaged again (T5). The size (area) of the spheroids after 5 days of treatment was quantified, and the average size of the spheroids at TO is depicted in red.\nA GPR68-positive allosteric modulator, Ogerin, was tested. U87glioblastoma cells were plated in low attachment round bottom 96-well plates and allowed to form tumor spheroids for 3 days (TO). These spheroids were treated with Vehicle (DMSO), 10 μM/20 μM Ogerin or 10 μM/20 μM Ogremorphin-2 (OGM2). The spheroids were placed in the Lionheart™ HCS equipped with environmental control (5% CO2 at 37° C.) and imaged every 12 hours.\nSpheroids were formed over 3 days using low attachment 96-well round bottom plates and then treated with DMSO or OGM2 in either pH 8 buffered media or pH 6.2 buffered media and grown for 3 days. The size (area) of spheroids was measured in relative area units. […] This increase in growth was abrogated by OGM2."}}, "data": [{"smiles": "CCc1ccc2c(c1)C1(NN=C(c3cccc4ccccc34)S1)C(=O)N2", "note": "(stereo not drawn) [OGM1, 5-ethyl-5′-naphthalen-1-ylspiro[1H-indole-3,2′-3H-1,3,4-thiadiazole]-2-one]", "values": [{"measurement": "remaining binding at 10 µM", "setting": "[1]", "result": 100, "unit": "%"}, {"measurement": "remaining binding at 10 µM", "setting": "[2]", "result": 100, "unit": "%"}, {"measurement": "remaining binding at 10 µM", "setting": "[3]", "result": 100, "unit": "%"}, {"measurement": "remaining binding at 10 µM", "setting": "[4]", "result": 84, "unit": "%"}, {"measurement": "remaining binding at 10 µM", "setting": "[5]", "result": 100, "unit": "%"}, {"measurement": "remaining binding at 10 µM", "setting": "[6]", "result": 81, "unit": "%"}, {"measurement": "remaining binding at 10 µM", "setting": "[7]", "result": 100, "unit": "%"}, {"measurement": "remaining binding at 10 µM", "setting": "[8]", "result": 92, "unit": "%"}, {"measurement": "remaining binding at 10 µM", "setting": "[9]", "result": 100, "unit": "%"}, {"measurement": "remaining binding at 10 µM", "setting": "[10]", "result": 100, "unit": "%"}, {"measurement": "remaining binding at 10 µM", "setting": "[11]", "result": 99, "unit": "%"}, {"measurement": "remaining binding at 10 µM", "setting": "[12]", "result": 100, "unit": "%"}, {"measurement": "Antagonism", "setting": "[13]; 10 uM", "result": "−0.6"}, {"measurement": "Agonism", "setting": "[13]; 12.5 uM", "result": "−0.3"}, {"measurement": "Antagonism", "setting": "[14]; 10 uM", "result": 0.6}, {"measurement": "Agonism", "setting": "[14]; 12.5 uM", "result": 0.4}, {"measurement": "Antagonism", "setting": "[15]; 10 uM", "result": "−3.3"}, {"measurement": "Agonism", "setting": "[15]; 12.5 uM", "result": 0.5}]}, {"smiles": "CCc1ccc2c(c1)C1(NN=C(c3ccccc3)S1)C(=O)N2", "note": "(stereo not drawn) [OGM2]", "values": [{"measurement": "spheroid growth rate", "setting": "[16]", "result": "impaired spheroid growth rate"}, {"measurement": "spheroid growth, comparison with TMZ", "setting": "[16]", "result": "more potent inhibitor of U87 spheroid growth than TMZ"}, {"measurement": "increase in spheroid growth at pH 6.2 versus pH 8", "setting": "[16]; 3 days", "result": "abrogated"}]}]}
